According to US20060018857A1, “Conditioning surface-active preparation” (priority 2004, published 2006):

Tests used:
[1] = Sensory assessment of skin feel on the treated forearm; assay type: in vivo, human; settings: FIG. 1; versus standard co-surfactant Cocamidopropylbetaine; inside of forearm
From the text: The conditioning properties of two surfactant mixtures were compared with one another by sensory assessment. After the sample composition had been completely absorbed onto the skin, the upper side of the middle and index fingers was slowly drawn without pressing over the treated inside of the forearm. If the skin surface was felt to be without friction, this corresponded to a soft skin feel.
In FIG. 1, marks in the left column favor the standard co-surfactant and marks in the right column favor the inventive co-surfactant for that property. In FIG. 1, square marks indicate a high degree of significance; diamonds indicate a medium degree of significance and circles indicate a low degree of significance (as indicated also by the length of the horizontal lines through the marks).

[2] = Half head test, shampoo versus standard; assay type: in vivo, human
Procedure: Each test was conducted on 10 volunteers by trained and skilled people. Each half of the head was prewashed and then treated with the corresponding products. During the test, performance properties, such as skin feel, were evaluated first, followed by such parameters as combability, feel, luster and volume.

[3] = Adsorption of sodium lauryl ether sulfate onto skin; design: species or system human; settings: FIG. 4; versus standard co-surfactant cocoglutamate
[4] = FIG. 2, versus standard co-surfactant Cocamidopropylbetaine, no added polymer
[5] = FIG. 3, versus standard co-surfactant Cocamidopropylbetaine and a polymer

Substance: Laureth-7 Citrate
- Skin feel (softness), sensory assessment [1]: felt to be softer
- Combability of hair in the dry and wet state [2, 4]: can be combed far better both in the dry and in the wet state
- Feel properties of hair [2, 4]: distinctly better
- Conditioning properties ([2]; FIG. 2, versus standard co-surfactant Cocamidopropylbetaine, no added polymer, 10 volunteers): clearly superior conditioning properties
- Combability of dry hair [2, 5]: improved combability of dry hair
- Feel of the hair [2, 5]: more pleasant feel of the hair
- Prevention of adsorption of sodium lauryl ether sulfate onto skin [3]: prevented considerably more effectively
